What was measured:
[1] = excitation and emission spectra of Cy5 derivatives; format: physicochemical
Text: To evaluate whether digoxigenation of Cy5 alters its fluorescence features, we compared the excitation and emission spectra of Cy5 and compared it with the spectra of the newly generated Dig-Cy5 and with Dig-Cy5 within a complex with bispecific antibodies.

[2] = serum levels of Dig-peptide after i.v. application, Western Blot; format: in vivo, mice (strain NRMI)
Description: To generate Dig-Cy5 complexes, 886.1 nmol of lyophilized DIG-Cy5 were added to 446.4 nmol anti-DIG-Antibody in 20 mM Histidin/140 mM NaCl pH 6.0 in 4 portions within 1 h at RT, slowly shaking. After the addition of the last portion the sample was incubated for a total of 2 h. In case of the DIG-PYY complexes, 691.7 nmol of lyophilized DIG-PYY were added to 364 nmol anti-DIG-Antibody in 20 mM Histidin/140 mM NaCl pH 6.0 and treated equally as the DIG-Cy5 complexes. The samples were applied to a Superdex 200 HiLoad 16/60 prep grade size exclusion column with 20 mM Histidin/140 mM NaCl pH6.0 as mobile phase. Fractions containing the complex were pooled and concentrated to 19.4 mg/ml (DIG-Cy5 complex) and 19.9 mg/ml (DIG-PYY complex) with a centrifugal filtration device (Vivaspin 20, 30 kDa MWCO, GE Healthcare). The protein concentration of the DIG-Cy5 containing sample was determined by the formula 4A280−(A649×CF))×dilution factor)/ε. CF is the correction factor A280nm/A649nm which was determined as 0.008. Loading of the antibody with DIG-Cy5 was calculated as 1.2 moles of DIG-Cy5 per mole antibody with the formula: (A649nm/(εCy5×protein concentration M))×dilution factor. […] All samples were filtered with a PVDF syringe filter (0.22 μm pore size) under sterile conditions.
To analyze the influence on PK parameters of antibody-complexation of the digoxigenated peptide, 32.1 nmol of the peptide DIG-moPYY, or of the corresponding antibody complexated peptide in 20 mM Histidin/140 mM NaCl pH 6.0 were applied to 2 female mice (strain NRMI) for each substance. […] About 0.1 ml blood samples were collected after the following time points: 0.08 h, 2 h and 24 h for Mouse 1 and 0.08 h, 4 h 24 h for Mouse 2. Serum samples of at least 40 μl were obtained after 1 h at RT by centrifugation (9300×g, 3 min, 4° C.). Serum samples were stored at −80° C. […] The reason for that was that we had no direct means to detect the peptide in serum samples. Therefore, we devised a Western-Blot related assay to detect digoxigenated peptide in serum. In a first step, the serum samples were separated on reducing SDS-PAGE. Because sample preparation for that included exposure of the serum to high concentrations of SDS and reducing agents, Dig-peptides can become released from the (completely denatured/unfolded)<Dig> IgG. To mediate the release of peptide from the antibody complex and separate them by SDS-PAGE, 2 μl of each serum sample was diluted in 18 μl 20 mM Histidin/140 mM NaCl pH 6.0, mixed with 6.7 μl of 4×LDS sample buffer and 3 μl of 10× sample reducing agent (NuPAGE, Invitrogen) for 5 min at 95° C. […] Digoxigenated peptides were subsequently detected on the membrane with anti-digoxygenin antibodies. […] Chemiluminescence was detected with the LumiImager F 1 (Roche) with an exposure time of 20 min. […]

[3] = target: T1, NPY2 receptor (Homo sapiens, UniProt P49146); assay: cAMP assay: inhibition of Forskolin stimulated cAMP accumulation in HEK293/hNPY2R; format: cell-based
T1 construct: expressed in transfected cells; host or cells: HEK293/hNPY2R (grown under G418 selection)
T1 sequence (P49146 1-381): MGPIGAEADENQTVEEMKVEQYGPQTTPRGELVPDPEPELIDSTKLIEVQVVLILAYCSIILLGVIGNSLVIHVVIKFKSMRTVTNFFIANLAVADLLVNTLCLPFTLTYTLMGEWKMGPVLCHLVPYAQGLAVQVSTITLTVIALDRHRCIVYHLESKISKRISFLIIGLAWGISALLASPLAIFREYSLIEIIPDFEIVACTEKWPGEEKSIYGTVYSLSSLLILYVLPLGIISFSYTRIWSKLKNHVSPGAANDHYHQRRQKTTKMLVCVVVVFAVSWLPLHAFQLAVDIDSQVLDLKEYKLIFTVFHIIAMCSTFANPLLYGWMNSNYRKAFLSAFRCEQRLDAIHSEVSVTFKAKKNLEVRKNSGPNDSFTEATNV
Description: To perform the assay, on the first day, medium was discarded, and the monolayer cells were washed with 10 mL PBS per flask (T225). […] The flask was gently tapped and the cell suspension was pooled. Each flask was rinsed with 10 mL plating medium and centrifuged at 1000 rpm for 5 min. The suspension was pooled and counted. […] The plates were incubated at 37° C. overnight. […] The media and reagents were allowed to come to room temperature. […] The cell medium was tapped off with a gentle inversion of the cell plate on a paper towel. 50 μL of stimulation medium was placed per well (each concentration done in four replicates). The plates were incubated at room temperature for 30 min, and the cells were checked under a microscope for toxicity. After 30 min of treatment, the stimulation media was discarded and 50 μL/well of Assay Lysis Buffer (provided in the Tropix kit) was added. […] 20 μL of the lysate was transferred from stimulation plates into the pre-coated antibody plates (384-well) from the Tropix kit. […] The plates were incubated at room temperature while shaking for 1 hour. […] The plates were tapped to dry. […] Signal for 1 sec/well in a Luminometer. (VICTOR-V) was measured.

[4] = system: diet-induced obese (DIO) mice; assay: food intake in DIO (diet-induced-obesity) model; format: in vivo, C57Bl/6 mice; details: moPYY 11.05 μMol/kg, antibody-complexed DIG-moPYY 0.62 μMol/kg, up to 96 h post-dosing
Description: To determine the effect of NPY2-receptor agonists on food intake in these experiments we applied uncomplexed PYY-derived peptides and antibody complexed peptides to animals (adult male C57Bl/6 mice) in a DIO (diet-induced-obesity) model. The experiments were conducted on adult male C57Bl/6 mice obtained from Jackson laboratories. The mice were placed on a high fat diet (HFD; 60% of dietary kcal as fat, BioServe F3282) for over 20 weeks to induce obesity. The diet-induced obese (DIO) mice were sorted by body weight and 24 h food intake, and housed individually in standard caging at 22° C. in a reversed 12-h light/12-h dark cycle, and were acclimated to these conditions for at least 6 days before start of the experiment. Food (HFD) and water were provided ad libitum throughout the study. Ab-PYY3-37 fusion proteins and the vehicle controls were injected at the beginning of the dark cycle and food intake measured at various time intervals up to 96 h post-dosing (N=6-8 mice/group). Uncomplexed peptide moPYY was applied at concentration of 11.05 μMol/kg. Antibody-complexed DIG-moPYY was applied at a concentration of 0.62 μMol/kg. Thus, the injected molar concentration of the antibody complexed peptide was more than 17-fold lower than that of the uncomplexed peptide. […]

Structure (SMILES): CCN1/C(=C/C=C/C=C/C2=[N+](CCCCCC(=O)O)c3ccc(S(=O)(=O)O)cc3C2(C)C)C(C)(C)c2cc(S(=O)(=O)[O-])ccc21 [Cy5]
- Emission maximum [1]: 680 nm
- Excitation maximum [1]: 652 nm

Structure (SMILES): CC[C@H](C)[C@H](NC(C)=O)C(=O)N[C@@H](CCCCNC(=O)CCOCCOCCOCCNC(=O)CO[C@H]1CC[C@@]2(C)[C@H](CC[C@@H]3[C@@H]2C[C@@H](O)[C@]2(C)[C@@H](C4=CC(=O)OC4)CC[C@]32O)C1)C(=O)N1CCN(c2ccc3ncn(CC(=O)N[C@@H](CCCNC(=N)N)C(=O)N[C@@H](Cc4c[nH]cn4)C(=O)N[C@@H](Cc4ccc(O)cc4)C(=O)N[C@@H](CC(C)C)C(=O)N[C@@H](CC(N)=O)C(=O)N[C@@H](Cc4c[nH]c5ccccc45)C(=O)N[C@H](C(=O)N[C@H](C(=O)N[C@@H](CCCNC(=N)N)C(=O)N[C@@H](CCC(N)=O)C(=O)N(C)[C@@H](CCCNC(=N)N)C(=O)N[C@@H](Cc4ccc(O)cc4)C(N)=O)[C@@H](C)O)C(C)C)c(=O)c3c2)CC1 [<Dig> DIGmoPYY]
- Dig-peptide signal in serum (Western Blot, in words) ([2]; 5 min after administration, listed as <DIG>-DIG-moPYY): strong signals
- Dig-peptide signal in serum (Western Blot, in words) ([2]; later time points up to 24 hrs after administration, listed as <DIG>-DIG-moPYY): still detectable with good signals
- biological activity in vitro compared to PEG-peptide ([3]; cAMP assay): four fold better
- effect on food intake [4]: strikingly reduced the food-intake

Structure (SMILES): CC[C@H](C)[C@H](NC(C)=O)C(=O)N[C@@H](CCCCNC(=O)CCOCCOCCOCCNC(=O)CO[C@H]1CC[C@@]2(C)[C@H](CC[C@@H]3[C@@H]2C[C@@H](O)[C@]2(C)[C@@H](C4=CC(=O)OC4)CC[C@]32O)C1)C(=O)N1CCN(c2ccc3ncn(CC(=O)N[C@@H](CCCNC(=N)N)C(=O)N[C@@H](Cc4c[nH]cn4)C(=O)N[C@@H](Cc4ccc(O)cc4)C(=O)N[C@@H](CC(C)C)C(=O)N[C@@H](CC(N)=O)C(=O)N[C@@H](Cc4c[nH]c5ccccc45)C(=O)N[C@H](C(=O)N[C@H](C(=O)N[C@@H](CCCNC(=N)N)C(=O)N[C@@H](CCC(N)=O)C(=O)N(C)[C@@H](CCCNC(=N)N)C(=O)N[C@@H](Cc4ccc(O)cc4)C(N)=O)[C@@H](C)O)C(C)C)c(=O)c3c2)CC1 [DIG-moPYY]
- Dig-peptide signal in serum (Western Blot, in words) ([2]; 5 min after administration): only in trace amounts
- Dig-peptide signal in serum (Western Blot, in words) ([2]; later time points up to 24 hrs after administration): no defined peptide band are detectable
- IC50 [3]: 0.42 nM

Reference: patent publication US20130280279A1, “PHARMACEUTICAL COMPOSITION OF A COMPLEX OF AN ANTI-DIG ANTIBODY AND DIGOXIGENIN THAT IS CONJUGATED TO A PEPTIDE” (HOFFMANN-LA ROCHE INC., priority 2011, published 2013)
